Test results as given in publication PMC7377239, “Cardiovascular Effects of Polychlorinated Biphenyls and Their Major Metabolites” (Environmental Health Perspectives, 2020).
Structures can show the parent of a compound that is named as a salt. Where two headings read alike, the source gives them in different places.

Test system: iCell cardiomyocytes (human iPSC-derived cardiomyocytes)
Assay: Intracellular Ca2+ flux / beating parameters in iCell cardiomyocytes (FLIPR tetra), 90 min or 24 h
Assay type: cell-based
Settings: for activity at 0.01 µM / activity at 0.1 µM / activity at 1 µM / activity at 10 µM / activity at 100 µM: Homo sapiens, Cardiomyocyte, 0.00 µM = 100.00; for activity at 0.1 µM: 0.10 µM
In short: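 Gelatin-plated iCell cardiomyocytes (5,000/well) were dye-loaded for 2 h at 37 °C, then exposed for 90 min or 24 h to PCBs/metabolites (5× plates at 0.05–500 µM; 0.5% DMSO final) in triplicate. Ca2+ flux was read for 100 s at 8 Hz and 37 °C. Peak height, frequency, spacing CV and decay/rise ratio were vehicle-normalized and fitted with a four-parameter logistic model, with POD set at 1 SD of vehicle.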

[1] = 1.5 h, read-out: cm.amp.avg.90min
[2] = 1.5 h, read-out: cm.amp.cv.90min
[3] = 1.5 h, read-out: cm.decay.rise.90min
[4] = 1.5 h, read-out: cm.spacing.cv.90min
[5] = 24 h, read-out: cm.amp.avg.24hrs
[6] = 24 h, read-out: cm.amp.cv.24hrs
[7] = 24 h, read-out: cm.decay.rise.24hrs
[8] = 24 h, read-out: cm.spacing.cv.24hrs

Compound: O=S(=O)(O)Oc1cc(-c2ccccc2)ccc1Cl [3-yl PCB 3 sulfate]
- activity at 0.01 µM [1]: 95.2%
- activity at 0.01 µM [2]: 101%
- activity at 0.01 µM (1.5 h, read-out: cm.bpm.90min): 96.5%
- activity at 0.01 µM [3]: 101%
- activity at 0.01 µM [4]: 112%
- activity at 0.1 µM [1]: 102%
- activity at 0.1 µM [2]: 103%
- activity at 0.1 µM (1.5 h, read-out: cm.bpm.90min): 97.8%
- activity at 0.1 µM [3]: 105%
- activity at 0.1 µM [4]: 107%
- activity at 1 µM [1]: 96.9%
- activity at 1 µM [2]: 94.9%
- activity at 1 µM (1.5 h, read-out: cm.bpm.90min): 99.1%
- activity at 1 µM [3]: 97.7%
- activity at 1 µM [4]: 102%
- activity at 10 µM [1]: 97.3%
- activity at 10 µM [2]: 107%
- activity at 10 µM (1.5 h, read-out: cm.bpm.90min): 96.5%
- activity at 10 µM [3]: 96.9%
- activity at 10 µM [4]: 101%
- activity at 100 µM [1]: 113%
- activity at 100 µM [2]: 90.5%
- activity at 100 µM (1.5 h, read-out: cm.bpm.90min): 99.1%
- activity at 100 µM [3]: 95.6%
- activity at 100 µM [4]: 92.1%
- activity at 0.01 µM [5]: 58.6%
- activity at 0.01 µM [6]: 42.1%
- activity at 0.01 µM (24 h, read-out: cm.bpm.24hrs): 49.6%
- activity at 0.01 µM [7]: 54.9%
- activity at 0.01 µM [8]: 62.7%
- activity at 0.1 µM [5]: 51.9%
- activity at 0.1 µM [6]: 31.8%
- activity at 0.1 µM (24 h, read-out: cm.bpm.24hrs): 47.7%
- activity at 0.1 µM [7]: 58%
- activity at 0.1 µM [8]: 42.3%
- activity at 1 µM [5]: 26.2%
- activity at 1 µM [6]: 69.1%
- activity at 1 µM (24 h, read-out: cm.bpm.24hrs): 46.8%
- activity at 1 µM [7]: 51.2%
- activity at 1 µM [8]: 53.3%
- activity at 10 µM [5]: 79.1%
- activity at 10 µM [6]: 146%
- activity at 10 µM (24 h, read-out: cm.bpm.24hrs): 94.5%
- activity at 10 µM [7]: 96.3%
- activity at 10 µM [8]: 96.4%
- activity at 100 µM [5]: 97.7%
- activity at 100 µM [6]: 77.4%
- activity at 100 µM (24 h, read-out: cm.bpm.24hrs): 85%
- activity at 100 µM [7]: 116%
- activity at 100 µM [8]: 85.3%

Compound: Oc1ccc(-c2ccc(Cl)cc2)cc1 [4'-OH PCB3]
- activity at 0.01 µM [1]: 95.4%
- activity at 0.01 µM [2]: 111%
- activity at 0.01 µM (1.5 h, read-out: cm.bpm.90min): 97.8%
- activity at 0.01 µM [3]: 97.5%
- activity at 0.01 µM [4]: 120%
- activity at 0.1 µM [1]: 101%
- activity at 0.1 µM [2]: 107%
- activity at 0.1 µM (1.5 h, read-out: cm.bpm.90min): 100%
- activity at 0.1 µM [3]: 97.1%
- activity at 0.1 µM [4]: 108%
- activity at 1 µM [1]: 105%
- activity at 1 µM [2]: 100%
- activity at 1 µM (1.5 h, read-out: cm.bpm.90min): 104%
- activity at 1 µM [3]: 95.9%
- activity at 1 µM [4]: 106%
- activity at 10 µM [1]: 97.2%
- activity at 10 µM [2]: 100%
- activity at 10 µM (1.5 h, read-out: cm.bpm.90min): 118%
- activity at 10 µM [3]: 89.6%
- activity at 10 µM [4]: 116%
- activity at 100 µM [1]: 0%
- activity at 100 µM [2]: 0%
- activity at 100 µM (1.5 h, read-out: cm.bpm.90min): 0%
- activity at 100 µM [3]: 0%
- activity at 100 µM [4]: 0%
- activity at 0.01 µM [5]: 91%
- activity at 0.01 µM [6]: 37.2%
- activity at 0.01 µM (24 h, read-out: cm.bpm.24hrs): 53.5%
- activity at 0.01 µM [7]: 43%
- activity at 0.01 µM [8]: 53.2%
- activity at 0.1 µM [5]: 31.1%
- activity at 0.1 µM [6]: 82.3%
- activity at 0.1 µM (24 h, read-out: cm.bpm.24hrs): 54.4%
- activity at 0.1 µM [7]: 43.8%
- activity at 0.1 µM [8]: 53.7%
- activity at 1 µM [5]: 32%
- activity at 1 µM [6]: 67.1%
- activity at 1 µM (24 h, read-out: cm.bpm.24hrs): 49.6%
- activity at 1 µM [7]: 51%
- activity at 1 µM [8]: 47.2%
- activity at 10 µM [5]: 54.4%
- activity at 10 µM [6]: 55%
- activity at 10 µM (24 h, read-out: cm.bpm.24hrs): 48.7%
- activity at 10 µM [7]: 58.5%
- activity at 10 µM [8]: 51.4%
- activity at 100 µM [5]: 0%
- activity at 100 µM [6]: 0%
- activity at 100 µM (24 h, read-out: cm.bpm.24hrs): 0%
- activity at 100 µM [7]: 0%
- activity at 100 µM [8]: 0%

Compound: COc1ccc(-c2ccc(Cl)cc2)cc1 [4'-OMe-PCB 3, 4′-methoxy-4-chlorobiphenyl]
- inotropic effect (cell beating parameters) (iPSC-CMs, concentration-response 0.01-100 μM, 90 min and 24 h): positive inotropic effects

Compound: Oc1cc(Cl)cc(-c2cccc(Cl)c2)c1 [5-OH-PCB 11]
- effect on Ca2+ flux (iPSC-CM, 100 μM, because of loss of cell viability): complete block of Ca^2+ flux

Compound: COc1ccc(-c2cccc(Cl)c2)cc1Cl [4-OMe PCB11]
- activity at 0.01 µM [1]: 85.7%
- activity at 0.01 µM [2]: 106%
- activity at 0.01 µM (1.5 h, read-out: cm.bpm.90min): 99.1%
- activity at 0.01 µM [3]: 99.7%
- activity at 0.01 µM [4]: 111%
- activity at 0.1 µM [1]: 97.2%
- activity at 0.1 µM [2]: 98.8%
- activity at 0.1 µM (1.5 h, read-out: cm.bpm.90min): 105%
- activity at 0.1 µM [3]: 99.7%
- activity at 0.1 µM [4]: 106%
- activity at 1 µM [1]: 106%
- activity at 1 µM [2]: 101%
- activity at 1 µM (1.5 h, read-out: cm.bpm.90min): 96.5%
- activity at 1 µM [3]: 101%
- activity at 1 µM [4]: 145%
- activity at 10 µM [1]: 94.1%
- activity at 10 µM [2]: 109%
- activity at 10 µM (1.5 h, read-out: cm.bpm.90min): 127%
- activity at 10 µM [3]: 94%
- activity at 10 µM [4]: 102%
- activity at 100 µM [1]: 0%
- activity at 100 µM [2]: 0%
- activity at 100 µM (1.5 h, read-out: cm.bpm.90min): 0%
- activity at 100 µM [3]: 0%
- activity at 100 µM [4]: 0%
- activity at 0.01 µM [5]: 121%
- activity at 0.01 µM [6]: 82.2%
- activity at 0.01 µM (24 h, read-out: cm.bpm.24hrs): 110%
- activity at 0.01 µM [7]: 94.8%
- activity at 0.01 µM [8]: 108%
- activity at 0.1 µM [5]: 79.3%
- activity at 0.1 µM [6]: 98.7%
- activity at 0.1 µM (24 h, read-out: cm.bpm.24hrs): 103%
- activity at 0.1 µM [7]: 98.9%
- activity at 0.1 µM [8]: 101%
- activity at 1 µM [5]: 107%
- activity at 1 µM [6]: 95.6%
- activity at 1 µM (24 h, read-out: cm.bpm.24hrs): 90.7%
- activity at 1 µM [7]: 111%
- activity at 1 µM [8]: 98.4%
- activity at 10 µM [5]: 92.1%
- activity at 10 µM [6]: 119%
- activity at 10 µM (24 h, read-out: cm.bpm.24hrs): 123%
- activity at 10 µM [7]: 109%
- activity at 10 µM [8]: 118%
- activity at 100 µM [5]: 0%
- activity at 100 µM [6]: 0%
- activity at 100 µM (24 h, read-out: cm.bpm.24hrs): 0%
- activity at 100 µM [7]: 0%
- activity at 100 µM [8]: 0%
